Key:
[1] = target: T1, human adenosine A2A receptor (Homo sapiens, UniProt P29274); assay: [3H]-SCH-58261 binding assay, human adenosine A2A receptor (CHO cell membranes, SPA); conditions: displacement of [3H]-SCH-58261 (1 nM); recombinant receptor in CHO membranes; Ki by Cheng-Prussoff equation; read-out: hA2 (pKi) (converted)
T1 construct: expressed in transfected cells; host or cells: CHO cells, semliki forest virus expression system; washed membrane pellet used
Method: Human Adenosine A2A Receptor
The human adenosine A2A receptor was recombinantly expressed in chinese hamster ovary (CHO) cells using the semliki forest virus expression system. Cells were harvested, washed twice by centrifugation, homogenised and again washed by centrifugation. The final washed membrane pellet was suspended in a Tris (50 mM) buffer containing 120 mM NaCl, 5 mM KCl, 2 mM CaCl2 and 10 mM MgCl2 (pH 7.4) (buffer A). The [^3H]-SCH-58261 (Dionisotti et al., 1997, Br J Pharmacol 121, 353; 1 nM) binding assay was carried out in 96-well plates in the presence of 2.5 μg of membrane protein, 0.5 mg of Ysi-poly-1-lysine SPA beads and 0.1 U adenosine deaminase in a final volume of 200 μl of buffer A. Non-specific binding was defined using xanthine amine congener (XAC; 2 μM). Compounds were tested at 10 concentrations from 10 μM–0.3 nM. All assays were conducted in duplicate and repeated at least two times. Assay plates were incubated for 1 hour at room temperature before centrifugation and then bound ligand determined using a Packard Topcount scintillation counter. IC50 values, the concentration where 50% of the […] binding is displaced, were calculated using a non-linear curve fitting program and Ki values calculated using the Cheng-Prussoff equation.

T1 sequence (P29274 whole entry): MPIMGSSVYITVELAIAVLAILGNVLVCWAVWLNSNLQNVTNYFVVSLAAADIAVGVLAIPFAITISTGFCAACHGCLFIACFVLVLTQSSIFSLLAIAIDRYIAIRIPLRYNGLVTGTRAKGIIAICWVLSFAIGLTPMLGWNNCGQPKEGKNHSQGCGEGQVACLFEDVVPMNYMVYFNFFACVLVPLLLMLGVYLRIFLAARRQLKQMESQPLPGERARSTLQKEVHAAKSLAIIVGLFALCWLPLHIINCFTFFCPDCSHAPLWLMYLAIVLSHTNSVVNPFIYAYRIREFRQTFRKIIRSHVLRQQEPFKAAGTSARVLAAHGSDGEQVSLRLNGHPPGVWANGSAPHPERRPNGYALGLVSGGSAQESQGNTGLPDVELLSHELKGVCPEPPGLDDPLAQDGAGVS

Row | SMILES | melting point [°C] | Ki [1] [nM]
1 | COc1ccc(N2CCOCC2)c2sc(NC(=O)N3CC4CCC3CO4)nc12 (centres unmarked) [Example 30, 2-Oxa-5-aza-bicyclo[2.2.2]octane-5-carboxylic acid (4-methoxy-7-morpholin-4-yl-benzothiazol-2-yl)-amide] | 164 to 170 | 5.01
2 | COc1ccc(N2CCOCC2)c2sc(NC(=O)N(C)[C@H]3CC[C@H](OC)CC3)nc12 [Example 32, (trans)-1-(4-Methoxy-cyclohexyl)-3-(4-methoxy-7-morpholin-4-yl-benzothiazol-2-yl)-1-methyl-urea] | 211 to 213 | 25.1
3 | COc1ccc(N2CCOCC2)c2sc(NC(=O)N(C)C3CCOCC3)nc12 [Example 34, 3-(4-Methoxy-7-morpholin-4-yl-benzothiazol-2-yl)-1-methyl-1-(tetrahydro-pyran-4-yl)-urea] | 240 to 242 | 15.8
4 | COc1ccc(N2CCOCC2)c2sc(NC(=O)N(C)C3CCCCCC3)nc12 [Example 35, 1-Cycloheptyl-3-(4-methoxy-7-morpholin-4-yl-benzothiazol-2-yl)-1-methyl-urea] | 198 to 200 | 12.6
5 | COc1ccc(N2CCOCC2)c2sc(NC(=O)NC3CCCC3)nc12 [Example 37, 1-Cyclopentyl-3-(4-methoxy-7-morpholin-4-yl-benzothiazol-2-yl)-urea] | 191 to 194 | 7.94

The remaining lines, values ahead:

Row | melting point [°C] | Ki [1] [nM] | SMILES
6 | 149 | 5.01 | COc1ccc(N2CCOCC2)c2sc(NC(=O)N3C[C@@H]4CC[C@H]3C4)nc12 [Example 33, (1S,4R)-2-Aza-bicyclo[2.2.1]heptane-2-carboxylic acid (4-methoxy-7-morpholin-4-yl-benzothiazol-2-yl)-amide]
7 | 110 to 125 | 7.94 | COc1ccc(N2CCOCC2)c2sc(NC(=O)N(C)C3CCCC3)nc12 [Example 36, 1-Cyclopentyl-3-(4-methoxy-7-morpholin-4-yl-benzothiazol-2-yl)-1-methyl-urea]

Reference: patent US7019001B2, “Substituted benzothiazole amide derivatives” (Hoffman-La Roche Inc., priority 2001, dated 2006)
